# Results from publication PMC3839082 (Proteins, 2011).
# Target: hCINAP (Homo sapiens, UniProt Q9Y3D8)
# Test: coupled PK/LDH adenylate kinase assay
# Assay type: biochemical
# hCINAP, sequence (Q9Y3D8 whole entry): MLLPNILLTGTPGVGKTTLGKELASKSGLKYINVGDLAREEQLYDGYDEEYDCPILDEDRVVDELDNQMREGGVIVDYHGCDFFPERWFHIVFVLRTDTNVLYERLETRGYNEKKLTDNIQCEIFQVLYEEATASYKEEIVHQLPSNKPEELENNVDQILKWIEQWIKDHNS
smiles,measurement,value
Nc1ncnc2c1ncn2[C@@H]1O[C@H](COP(=O)(O)OP(=O)(O)OP(=O)(O)OP(=O)(O)OP(=O)(O)OC[C@H]2O[C@@H](n3cnc4c(N)ncnc43)[C@H](O)[C@@H]2O)[C@@H](O)[C@H]1O [AP5A],IC50,27 ± 2.93 nM
